These results are taken from patent EP4755888A1 (ILAb Co., Ltd., priority 2023, dated 2025).

This assay addresses PD-1/PD-L1 (Homo sapiens, UniProt Q9NZQ7). Kind of assay: TR-FRET PD-1/PD-L1 binding inhibition at the molecular level (free proteins). The conditions noted are these: Tag1-PD-L1 and Tag2-PD-1 proteins, twelve concentrations from 200 nM, 2 hours at room temperature, read-out: FRET assay (IC50). The gist of the method:
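HTRF read-out at 665/620 nm after 2 h at room temperature. Detection used anti-Tag1 Eu cryptate plus anti-Tag2 XL665 antibodies. Tagged PD-L1 and PD-1 proteins were pre-mixed with compound across twelve […] 1:2 dilutions starting at 200 nM.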
Background: TR-FRET usually uses a lanthanide donor and a delayed reading to cut background.

In general, IC50 refers to the concentration that inhibits the measured activity by half.

Chain of PD-1/PD-L1 (Q9NZQ7 19-238 limits assumed): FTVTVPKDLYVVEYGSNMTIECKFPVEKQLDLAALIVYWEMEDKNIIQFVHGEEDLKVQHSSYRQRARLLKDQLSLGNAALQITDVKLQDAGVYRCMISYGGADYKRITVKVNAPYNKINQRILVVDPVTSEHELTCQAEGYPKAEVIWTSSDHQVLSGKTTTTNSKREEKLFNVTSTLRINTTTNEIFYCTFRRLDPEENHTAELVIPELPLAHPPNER

Turning to `CC(C)(N[C@@H]1CCCn2nc(C(=O)Nc3cccc(-c4cccc(Nc5nc(C(F)F)nc6cc(CN7CC[C@@H](O)C7)cnc56)c4Cl)c3Cl)cc21)C(=O)O` [Compound 259, 2-(((R)-2-((2,2'-dichloro-3'-((2-(difluoromethyl)-7-(((R)-3-hydroxypyrrolidin-1-yl)methyl)pyrido[3,2-d]pyrimidin-4-yl)amino)-[1,1'-biphenyl]-3-yl)carbamoyl)-4,5,6,7-tetrahydropyrazolo[1,5-a]pyridin-4-yl)amino)-2-methylpropanoic acid], the IC50 is 10 to 100 nM.

Regarding `CC(C)(N[C@@H]1CCCn2nc(C(=O)Nc3cccc(-c4cccc(Nc5nccc6nccnc56)c4Cl)c3Cl)cc21)C(=O)O` [Compound 259-1, (R)-2-((2-((2,2'-dichloro-3'-(pyrido[3,4-b]pyrazin-5-ylamino)-[1,1'-biphenyl]-3-yl)carbamoyl)-4,5,6,7-tetrahydropyrazolo[1,5-a]pyridin-4-yl)amino)-2-methylpropanoic acid], the IC50 fell in the range of 10 to 100 nM. On to `CC(C)(N[C@H]1CCCn2nc(C(=O)Nc3cccc(-c4cccc(Nc5nccc6nccnc56)c4Cl)c3Cl)cc21)C(=O)O` [Compound 260, (S)-2-((2-((2,2'-dichloro-3'-(pyrido[3,4-b]pyrazin-5-ylamino)-[1,1'-biphenyl]-3-yl)carbamoyl)-4,5,6,7-tetrahydropyrazolo[1,5-a]pyridin-4-yl)amino)-2-methylpropanoic acid], for which the IC50 lay in the range of 10 to 100 nM. Consider `O=C(Nc1cccc(-c2cccc(Nc3nc(C(F)F)nc4cc(CN5CC[C@@H](O)C5)cnc34)c2Cl)c1Cl)c1cc2n(n1)CCC[C@@H]2N1CC(C(=O)O)C1` [Compound 261, 1-((S)-2-((2,2'-dichloro-3'-((2-(difluoromethyl)-7-(((R)-3-hydroxypyrrolidin-1-yl)methyl)pyrido[3,2-d]pyrimidin-4-yl)amino)-[1,1'-biphenyl]-3-yl)carbamoyl)-4,5,6,7-tetrahydropyrazolo[1,5-a]pyridin-4-yl)azetidine-3-carboxylic acid], for which the IC50 is under 10 nM. The result for `O=C(Nc1cccc(-c2cccc(Nc3nccc4nccnc34)c2Cl)c1Cl)c1cc2n(n1)CCC[C@H]2N1CC(C(=O)O)C1` [Compound 263, (R)-1-(2-((2,2'-dichloro-3'-(pyrido[3,4-b]pyrazin-5-ylamino)-[1,1'-biphenyl]-3-yl)carbamoyl)-4,5,6,7-tetrahydropyrazolo[1,5-a]pyridin-4-yl)azetidine-3-carboxylic acid] reads under 10 nM; that for `O=C(Nc1cccc(-c2cccc(Nc3nccc4nccnc34)c2Cl)c1Cl)c1cc2n(n1)CCC[C@@H]2N1CC(C(=O)O)C1` [Compound 264, (S)-1-(2-((2,2'-dichloro-3'-(pyrido[3,4-b]pyrazin-5-ylamino)-[1,1'-biphenyl]-3-yl)carbamoyl)-4,5,6,7-tetrahydropyrazolo[1,5-a]pyridin-4-yl)azetidine-3-carboxylic acid], under 10 nM; that for `Cc1c(NC(=O)c2ccc(CN3CC[C@@H](O)C3)cn2)cccc1-c1cccc(NC(=O)c2cc3n(n2)CCC[C@@H]3N2CC(C(=O)O)C2)c1C` [Compound 265, 1-((S)-2-((3'-(5-(((R)-3-hydroxypyrrolidin-1-yl)methyl)picolinamido)-2,2'-dimethyl-[1,1'-biphenyl]-3-yl)carbamoyl)-4,5,6,7-tetrahydropyrazolo[1,5-a]pyridin-4-yl)azetidine-3-carboxylic acid], under 10 nM. The result for `Cc1c(NC(=O)c2cc3n(n2)CCC[C@@H]3N2CCC(C(=O)O)CC2)cccc1-c1cccc(Nc2nc(C(F)F)nc3cc(CN4CC[C@@H](O)C4)cnc23)c1C` [Compound 267, 1-((S)-2-((3'-((2-(difluoromethyl)-7-(((R)-3-hydroxypyrrolidin-1-yl)methyl)pyrido[3,2-d]pyrimidin-4-yl)amino)-2,2'-dimethyl-[1,1'-biphenyl]-3-yl)carbamoyl)-4,5,6,7-tetrahydropyrazolo[1,5-a]pyridin-4-yl)piperidine-4-carboxylic acid] reads under 10 nM; that for `Cc1c(NC(=O)c2cc3n(n2)CCC[C@H]3N2CCC(C(=O)O)CC2)cccc1-c1cccc(Nc2nc(C(F)F)nc3cc(CN4CC[C@@H](O)C4)cnc23)c1C` [Compound 268, 1-((R)-2-((3'-((2-(difluoromethyl)-7-(((R)-3-hydroxypyrrolidin-1-yl)methyl)pyrido[3,2-d]pyrimidin-4-yl)amino)-2,2'-dimethyl-[1,1'-biphenyl]-3-yl)carbamoyl)-4,5,6,7-tetrahydropyrazolo[1,5-a]pyridin-4-yl)piperidine-4-carboxylic acid], 10 to 100 nM; that for `O=C(Nc1cccc(-c2cccc(Nc3nc(C(F)F)nc4cc(CN5CC(F)C5)cnc34)c2Cl)c1Cl)c1cc2n(n1)CCC[C@@H]2N1CCC(O)CC1` [Compound 269, (S)-N-(2,2'-dichloro-3'-((2-(difluoromethyl)-7-((3-fluoroazetidin-1-yl)methyl)pyrido[3,2-d]pyrimidin-4-yl)amino)-[1,1'-biphenyl]-3-yl)-4-(4-hydroxypiperidin-1-yl)-4,5,6,7-tetrahydropyrazolo[1,5-a]pyridine-2-carboxamide], 10 to 100 nM. For the compound `O=C(Nc1cccc(-c2cccc(Nc3nc(C(F)F)nc4cc(CN5CC(F)C5)cnc34)c2Cl)c1Cl)c1cc2n(n1)CCC[C@H]2N1CCC(O)CC1` [Compound 270, (R)-N-(2,2'-dichloro-3'-((2-(difluoromethyl)-7-((3-fluoroazetidin-1-yl)methyl)pyrido[3,2-d]pyrimidin-4-yl)amino)-[1,1'-biphenyl]-3-yl)-4-(4-hydroxypiperidin-1-yl)-4,5,6,7-tetrahydropyrazolo[1,5-a]pyridine-2-carboxamide], the IC50 was 10 to 100 nM. Next, `O=C(Nc1cccc(-c2cccc(Nc3nc(C(F)F)nc4cc(CN5CC(F)(F)C5)cnc34)c2Cl)c1Cl)c1cc2n(n1)CCC[C@@H]2N1CCC(O)CC1` [Compound 271, (S)-N-(2,2'-dichloro-3'-((7-((3,3-difluoroazetidin-1-yl)methyl)-2-(difluoromethyl)pyrido[3,2-d]pyrimidin-4-yl)amino)-[1,1'-biphenyl]-3-yl)-4-(4-hydroxypiperidin-1-yl)-4,5,6,7-tetrahydropyrazolo[1,5-a]pyridine-2-carboxamide]: 10 to 100 nM; `O=C(Nc1cccc(-c2cccc(Nc3nc(C(F)F)nc4cc(CN5CC(F)(F)C5)cnc34)c2Cl)c1Cl)c1cc2n(n1)CCC[C@H]2N1CCC(O)CC1` [Compound 272, (R)-N-(2,2'-dichloro-3'-((7-((3,3-difluoroazetidin-1-yl)methyl)-2-(difluoromethyl)pyrido[3,2-d]pyrimidin-4-yl)amino)-[1,1'-biphenyl]-3-yl)-4-(4-hydroxypiperidin-1-yl)-4,5,6,7-tetrahydropyrazolo[1,5-a]pyridine-2-carboxamide]: 10 to 100 nM. `O=C(Nc1cccc(-c2cccc(Nc3nc(C(F)(F)F)nc4cccnc34)c2Cl)c1Cl)c1cc2n(n1)CCC[C@@H]2N1CCC(C(=O)O)CC1` [Compound 273, (S)-1-(2-((2,2'-dichloro-3'-((2-(trifluoromethyl)pyrido[3,2-d]pyrimidin-4-yl)amino)-[1,1'-biphenyl]-3-yl)carbamoyl)-4,5,6,7-tetrahydropyrazolo[1,5-a]pyridin-4-yl)piperidine-4-carboxylic acid]: the IC50 fell in the range of 10 to 100 nM. Next, `O=C(Nc1cccc(-c2cccc(Nc3nc(C(F)(F)F)nc4cccnc34)c2Cl)c1Cl)c1cc2n(n1)CCC[C@H]2N1CCC(C(=O)O)CC1` [Compound 274, (R)-1-(2-((2,2'-dichloro-3'-((2-(trifluoromethyl)pyrido[3,2-d]pyrimidin-4-yl)amino)-[1,1'-biphenyl]-3-yl)carbamoyl)-4,5,6,7-tetrahydropyrazolo[1,5-a]pyridin-4-yl)piperidine-4-carboxylic acid]: 10 to 100 nM. Next, `CC(C)(N[C@H]1CCCn2nc(C(=O)Nc3cccc(-c4cccc(Nc5nc(C(F)(F)F)nc6cccnc56)c4Cl)c3Cl)cc21)C(=O)O` [Compound 275, (S)-2-((2-((2,2'-dichloro-3'-((2-(trifluoromethyl)pyrido[3,2-d]pyrimidin-4-yl)amino)-[1,1'-biphenyl]-3-yl)carbamoyl)-4,5,6,7-tetrahydropyrazolo[1,5-a]pyridin-4-yl)amino)-2-methylpropanoic acid]: 10 to 100 nM; `CC(C)(N[C@@H]1CCCn2nc(C(=O)Nc3cccc(-c4cccc(Nc5nc(C(F)(F)F)nc6cccnc56)c4Cl)c3Cl)cc21)C(=O)O` [Compound 276, (R)-2-((2-((2,2'-dichloro-3'-((2-(trifluoromethyl)pyrido[3,2-d]pyrimidin-4-yl)amino)-[1,1'-biphenyl]-3-yl)carbamoyl)-4,5,6,7-tetrahydropyrazolo[1,5-a]pyridin-4-yl)amino)-2-methylpropanoic acid]: under 10 nM; `O=C(Nc1cccc(-c2cccc(Nc3nc(C(F)(F)F)nc4cccnc34)c2Cl)c1Cl)c1cc2n(n1)CCC[C@@H]2N1CC(C(=O)O)C1` [Compound 277, (S)-1-(2-((2,2'-dichloro-3'-((2-(trifluoromethyl)pyrido[3,2-d]pyrimidin-4-yl)amino)-[1,1'-biphenyl]-3-yl)carbamoyl)-4,5,6,7-tetrahydropyrazolo[1,5-a]pyridin-4-yl)azetidine-3-carboxylic acid]: 10 to 100 nM. With `O=C(Nc1cccc(-c2cccc(Nc3nc(C(F)(F)F)nc4cccnc34)c2Cl)c1Cl)c1cc2n(n1)CCC[C@H]2N1CC(C(=O)O)C1` [Compound 278, (R)-1-(2-((2,2'-dichloro-3'-((2-(trifluoromethyl)pyrido[3,2-d]pyrimidin-4-yl)amino)-[1,1'-biphenyl]-3-yl)carbamoyl)-4,5,6,7-tetrahydropyrazolo[1,5-a]pyridin-4-yl)azetidine-3-carboxylic acid], the IC50 is 10 to 100 nM. Next, `Cc1nc(Nc2cccc(-c3cccc(NC(=O)c4cc5n(n4)CCC[C@@H]5NC(C)(C)C(=O)O)c3Cl)c2Cl)c2ncccc2n1` [Compound 279, (S)-2-((2-((2,2'-dichloro-3'-((2-methylpyrido[3,2-d]pyrimidin-4-yl)amino)-[1,1'-biphenyl]-3-yl)carbamoyl)-4,5,6,7-tetrahydropyrazolo[1,5-a]pyridin-4-yl)amino)-2-methylpropanoic acid]: 10 to 100 nM.
